Assay results as given in US20170360664A1, “PERSONAL CARE COMPOSITIONS” (Colgate-Palmolive Company, priority 2015, published 2017).

Assay: Clarity, pH and aging stability of aqueous SnF2/STPP solutions
Assay type: physicochemical
Conditions: 2% stannous fluoride solution without STPP
Description: The solutions are then further mixed at room temperature until a clear solution forms. All of the solutions contain 2% SnF2.
The solutions with a P:Sn molar ratio spanning from 1 to 15 containing 2% SnF2 are aged overnight at room temperature.
A different set of solutions with a P:Sn molar ratio of 2 and 5 are placed in a 50° C. oven for eight weeks.

With `[F][Sn][F]` [stannous fluoride] the Appearance after dissolution was “precipitate almost immediately after dissolution”.
